Structures are written as SMILES.

What all share (assay): Kinase selectivity, DiscoverX scanMAX Kinase assay panel (% control)
Assay type in all cases: binding

For assay [1], the target named is T1, kinases of the scanMAX Kinase assay panel (Homo sapiens, UniProt Q6ZN16).
T1 construct: purchased DiscoverX Co. (contract measurement) scanMAX Kinase assay panel
T1 sequence (Q6ZN16 1-1313): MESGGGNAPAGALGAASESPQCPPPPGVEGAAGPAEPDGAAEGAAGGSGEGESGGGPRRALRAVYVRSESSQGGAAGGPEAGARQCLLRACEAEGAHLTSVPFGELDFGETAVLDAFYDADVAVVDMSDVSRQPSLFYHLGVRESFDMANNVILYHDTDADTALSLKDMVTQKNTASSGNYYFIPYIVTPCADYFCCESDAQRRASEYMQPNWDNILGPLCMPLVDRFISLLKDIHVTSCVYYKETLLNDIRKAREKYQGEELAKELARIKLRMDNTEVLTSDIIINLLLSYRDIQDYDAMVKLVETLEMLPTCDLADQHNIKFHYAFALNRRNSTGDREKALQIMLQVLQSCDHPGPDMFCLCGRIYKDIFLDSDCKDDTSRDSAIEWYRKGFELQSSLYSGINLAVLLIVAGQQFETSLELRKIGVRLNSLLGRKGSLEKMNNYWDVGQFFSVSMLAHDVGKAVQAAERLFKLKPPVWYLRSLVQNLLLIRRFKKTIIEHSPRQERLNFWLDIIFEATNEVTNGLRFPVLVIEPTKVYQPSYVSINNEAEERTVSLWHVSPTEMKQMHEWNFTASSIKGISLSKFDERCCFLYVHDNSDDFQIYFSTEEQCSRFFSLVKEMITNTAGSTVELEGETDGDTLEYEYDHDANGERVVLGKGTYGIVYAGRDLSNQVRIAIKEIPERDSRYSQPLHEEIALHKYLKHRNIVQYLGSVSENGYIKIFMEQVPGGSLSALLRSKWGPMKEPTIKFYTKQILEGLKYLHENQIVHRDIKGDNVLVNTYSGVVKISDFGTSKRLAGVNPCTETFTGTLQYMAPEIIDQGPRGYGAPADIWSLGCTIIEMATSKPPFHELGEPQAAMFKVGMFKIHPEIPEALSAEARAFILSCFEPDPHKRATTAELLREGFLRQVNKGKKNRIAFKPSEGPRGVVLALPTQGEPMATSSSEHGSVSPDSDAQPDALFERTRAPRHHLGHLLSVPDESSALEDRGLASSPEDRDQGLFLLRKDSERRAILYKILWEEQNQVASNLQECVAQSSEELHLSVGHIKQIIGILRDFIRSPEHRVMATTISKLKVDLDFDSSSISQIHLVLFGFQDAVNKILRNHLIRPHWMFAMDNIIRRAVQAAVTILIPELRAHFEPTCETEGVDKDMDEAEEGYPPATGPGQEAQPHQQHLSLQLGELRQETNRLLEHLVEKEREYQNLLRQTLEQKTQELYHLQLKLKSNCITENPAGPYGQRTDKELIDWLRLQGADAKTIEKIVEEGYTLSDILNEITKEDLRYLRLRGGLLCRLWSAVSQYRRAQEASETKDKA
As to conditions: MAP3K15; 1 uM. The essentials: (§1)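 A 1 uM DMSO solution of compound was applied across the panel kinases, and results were expressed as % control relative to DMSO (100%) and a positive control (0%).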

Assay [2] concerns the target T2, kinases of the scanMAX Kinase assay panel (Homo sapiens, UniProt Q86YV6).
T2 construct: purchased DiscoverX Co. (contract measurement) scanMAX Kinase assay panel
T2 sequence (Q86YV6 1-388): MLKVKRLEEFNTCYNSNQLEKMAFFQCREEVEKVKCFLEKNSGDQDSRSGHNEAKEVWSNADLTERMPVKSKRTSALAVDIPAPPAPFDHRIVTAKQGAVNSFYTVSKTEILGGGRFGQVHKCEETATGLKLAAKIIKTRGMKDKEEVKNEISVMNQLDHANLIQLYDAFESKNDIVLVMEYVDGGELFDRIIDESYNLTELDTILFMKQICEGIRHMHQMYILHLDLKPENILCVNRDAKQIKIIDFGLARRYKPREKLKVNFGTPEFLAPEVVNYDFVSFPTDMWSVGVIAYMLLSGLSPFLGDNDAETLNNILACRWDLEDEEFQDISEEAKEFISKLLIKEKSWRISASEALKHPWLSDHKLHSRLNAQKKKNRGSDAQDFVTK
As to conditions: MYLK4; 1 uM. A digest of the protocol:
as §1

The target in assay [3] is T3, kinases of the scanMAX Kinase assay panel (Homo sapiens, UniProt Q8TDR2).
T3 construct: purchased DiscoverX Co. (contract measurement) scanMAX Kinase assay panel
T3 sequence (Q8TDR2 whole entry): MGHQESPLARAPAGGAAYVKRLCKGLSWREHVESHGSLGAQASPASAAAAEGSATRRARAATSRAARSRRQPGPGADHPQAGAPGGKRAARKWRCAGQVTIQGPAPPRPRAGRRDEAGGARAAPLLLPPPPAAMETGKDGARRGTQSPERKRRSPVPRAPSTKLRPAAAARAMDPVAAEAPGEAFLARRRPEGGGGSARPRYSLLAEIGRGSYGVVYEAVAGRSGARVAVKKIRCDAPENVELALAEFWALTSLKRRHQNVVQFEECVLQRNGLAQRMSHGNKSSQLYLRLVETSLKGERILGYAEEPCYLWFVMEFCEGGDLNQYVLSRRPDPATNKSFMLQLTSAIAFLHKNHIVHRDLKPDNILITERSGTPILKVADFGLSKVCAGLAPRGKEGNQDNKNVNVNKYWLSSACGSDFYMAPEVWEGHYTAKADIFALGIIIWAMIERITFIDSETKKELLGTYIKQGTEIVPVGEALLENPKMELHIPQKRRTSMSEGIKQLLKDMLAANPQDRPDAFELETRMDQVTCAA
As to conditions: kinase STK35; 1 uM in DMSO. A digest of the protocol:
as §1

For assay [4], the target named is T4, kinases of the scanMAX Kinase assay panel (Homo sapiens, UniProt Q16659).
T4 construct: purchased DiscoverX Co. (contract measurement) scanMAX Kinase assay panel
T4 sequence (Q16659 whole entry): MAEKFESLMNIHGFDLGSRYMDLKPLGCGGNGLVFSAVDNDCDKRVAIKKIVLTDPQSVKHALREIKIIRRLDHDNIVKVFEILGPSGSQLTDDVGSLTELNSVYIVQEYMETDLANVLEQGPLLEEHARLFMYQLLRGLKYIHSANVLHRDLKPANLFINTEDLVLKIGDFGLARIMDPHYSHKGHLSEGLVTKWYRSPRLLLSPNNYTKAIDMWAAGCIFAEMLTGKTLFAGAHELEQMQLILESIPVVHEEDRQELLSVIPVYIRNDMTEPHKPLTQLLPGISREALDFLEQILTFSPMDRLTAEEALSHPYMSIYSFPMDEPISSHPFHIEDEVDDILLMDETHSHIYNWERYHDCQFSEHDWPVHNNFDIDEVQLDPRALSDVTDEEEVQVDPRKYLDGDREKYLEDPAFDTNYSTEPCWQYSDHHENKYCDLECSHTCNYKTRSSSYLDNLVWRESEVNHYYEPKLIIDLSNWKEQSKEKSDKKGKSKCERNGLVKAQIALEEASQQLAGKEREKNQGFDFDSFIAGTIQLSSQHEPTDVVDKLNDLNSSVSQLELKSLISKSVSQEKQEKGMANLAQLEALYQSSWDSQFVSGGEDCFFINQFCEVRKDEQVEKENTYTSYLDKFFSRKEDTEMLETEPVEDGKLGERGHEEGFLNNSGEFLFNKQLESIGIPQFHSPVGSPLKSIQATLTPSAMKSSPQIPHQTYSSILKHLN
As to conditions: ERK3; 1 uM. The essentials: as §1

The target of assay [5] is T5, kinases of the scanMAX Kinase assay panel (Homo sapiens, UniProt P00519, Y253F).
T5 construct: purchased DiscoverX Co. (contract measurement) scanMAX Kinase assay panel
As to conditions: ABL1(Y253F)-phosphorylated; 1 uM. The essentials: as §1

Assay [6] has as its target T6, kinases of the scanMAX Kinase assay panel (Homo sapiens, UniProt Q9UM73).
T6 construct: purchased DiscoverX Co. (contract measurement) scanMAX Kinase assay panel
As to conditions: ALK; 1 uM. A digest of the protocol:
as §1

Assay [7] has as its target T7, kinases of the scanMAX Kinase assay panel (Homo sapiens, UniProt P08581, M1250T).
T7 construct: purchased DiscoverX Co. (contract measurement) scanMAX Kinase assay panel
As to conditions: MET(M1250T); 1 uM. The essentials: as §1

T6 sequence (Q9UM73 19-1620): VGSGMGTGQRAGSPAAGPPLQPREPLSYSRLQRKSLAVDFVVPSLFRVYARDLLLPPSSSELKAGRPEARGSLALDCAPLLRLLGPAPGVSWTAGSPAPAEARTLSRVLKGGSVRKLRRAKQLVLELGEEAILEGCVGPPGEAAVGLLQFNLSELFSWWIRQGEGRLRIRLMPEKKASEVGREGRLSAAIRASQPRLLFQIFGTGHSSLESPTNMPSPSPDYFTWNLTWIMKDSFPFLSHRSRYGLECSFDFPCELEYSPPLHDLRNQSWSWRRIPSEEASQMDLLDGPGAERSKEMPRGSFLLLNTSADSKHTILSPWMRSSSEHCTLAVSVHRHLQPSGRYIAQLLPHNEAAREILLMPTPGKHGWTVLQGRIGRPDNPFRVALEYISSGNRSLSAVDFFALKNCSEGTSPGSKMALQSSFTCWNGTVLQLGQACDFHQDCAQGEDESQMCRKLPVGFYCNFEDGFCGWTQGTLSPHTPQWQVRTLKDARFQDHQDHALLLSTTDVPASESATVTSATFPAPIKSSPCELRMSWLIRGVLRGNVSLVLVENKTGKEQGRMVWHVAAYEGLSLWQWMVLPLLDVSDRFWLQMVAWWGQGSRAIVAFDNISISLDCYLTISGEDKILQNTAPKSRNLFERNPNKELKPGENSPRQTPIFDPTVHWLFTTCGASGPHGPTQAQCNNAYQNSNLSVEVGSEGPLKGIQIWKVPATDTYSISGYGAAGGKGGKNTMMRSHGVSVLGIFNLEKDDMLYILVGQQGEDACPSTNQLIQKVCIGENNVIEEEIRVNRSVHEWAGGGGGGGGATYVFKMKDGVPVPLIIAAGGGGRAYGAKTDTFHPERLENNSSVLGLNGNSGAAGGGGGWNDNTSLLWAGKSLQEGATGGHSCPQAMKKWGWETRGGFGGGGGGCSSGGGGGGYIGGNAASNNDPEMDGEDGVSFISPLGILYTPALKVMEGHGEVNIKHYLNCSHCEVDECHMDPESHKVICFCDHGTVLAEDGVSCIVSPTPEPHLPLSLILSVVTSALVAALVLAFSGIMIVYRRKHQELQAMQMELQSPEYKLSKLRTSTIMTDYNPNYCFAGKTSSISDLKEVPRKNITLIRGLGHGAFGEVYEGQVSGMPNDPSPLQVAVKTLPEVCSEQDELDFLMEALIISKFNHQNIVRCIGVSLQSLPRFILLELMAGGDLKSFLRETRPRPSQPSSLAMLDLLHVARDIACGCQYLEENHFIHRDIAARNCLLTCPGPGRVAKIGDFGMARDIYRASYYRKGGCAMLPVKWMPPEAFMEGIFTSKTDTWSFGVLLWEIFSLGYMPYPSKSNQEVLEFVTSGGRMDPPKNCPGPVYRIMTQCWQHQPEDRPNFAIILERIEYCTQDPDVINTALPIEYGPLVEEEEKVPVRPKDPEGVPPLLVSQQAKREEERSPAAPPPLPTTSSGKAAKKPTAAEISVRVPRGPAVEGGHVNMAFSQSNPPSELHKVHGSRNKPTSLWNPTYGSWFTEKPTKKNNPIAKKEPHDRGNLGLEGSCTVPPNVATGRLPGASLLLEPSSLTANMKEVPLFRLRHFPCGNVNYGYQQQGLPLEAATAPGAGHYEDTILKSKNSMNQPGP
T7 sequence (P08581 25-1390 M1250T): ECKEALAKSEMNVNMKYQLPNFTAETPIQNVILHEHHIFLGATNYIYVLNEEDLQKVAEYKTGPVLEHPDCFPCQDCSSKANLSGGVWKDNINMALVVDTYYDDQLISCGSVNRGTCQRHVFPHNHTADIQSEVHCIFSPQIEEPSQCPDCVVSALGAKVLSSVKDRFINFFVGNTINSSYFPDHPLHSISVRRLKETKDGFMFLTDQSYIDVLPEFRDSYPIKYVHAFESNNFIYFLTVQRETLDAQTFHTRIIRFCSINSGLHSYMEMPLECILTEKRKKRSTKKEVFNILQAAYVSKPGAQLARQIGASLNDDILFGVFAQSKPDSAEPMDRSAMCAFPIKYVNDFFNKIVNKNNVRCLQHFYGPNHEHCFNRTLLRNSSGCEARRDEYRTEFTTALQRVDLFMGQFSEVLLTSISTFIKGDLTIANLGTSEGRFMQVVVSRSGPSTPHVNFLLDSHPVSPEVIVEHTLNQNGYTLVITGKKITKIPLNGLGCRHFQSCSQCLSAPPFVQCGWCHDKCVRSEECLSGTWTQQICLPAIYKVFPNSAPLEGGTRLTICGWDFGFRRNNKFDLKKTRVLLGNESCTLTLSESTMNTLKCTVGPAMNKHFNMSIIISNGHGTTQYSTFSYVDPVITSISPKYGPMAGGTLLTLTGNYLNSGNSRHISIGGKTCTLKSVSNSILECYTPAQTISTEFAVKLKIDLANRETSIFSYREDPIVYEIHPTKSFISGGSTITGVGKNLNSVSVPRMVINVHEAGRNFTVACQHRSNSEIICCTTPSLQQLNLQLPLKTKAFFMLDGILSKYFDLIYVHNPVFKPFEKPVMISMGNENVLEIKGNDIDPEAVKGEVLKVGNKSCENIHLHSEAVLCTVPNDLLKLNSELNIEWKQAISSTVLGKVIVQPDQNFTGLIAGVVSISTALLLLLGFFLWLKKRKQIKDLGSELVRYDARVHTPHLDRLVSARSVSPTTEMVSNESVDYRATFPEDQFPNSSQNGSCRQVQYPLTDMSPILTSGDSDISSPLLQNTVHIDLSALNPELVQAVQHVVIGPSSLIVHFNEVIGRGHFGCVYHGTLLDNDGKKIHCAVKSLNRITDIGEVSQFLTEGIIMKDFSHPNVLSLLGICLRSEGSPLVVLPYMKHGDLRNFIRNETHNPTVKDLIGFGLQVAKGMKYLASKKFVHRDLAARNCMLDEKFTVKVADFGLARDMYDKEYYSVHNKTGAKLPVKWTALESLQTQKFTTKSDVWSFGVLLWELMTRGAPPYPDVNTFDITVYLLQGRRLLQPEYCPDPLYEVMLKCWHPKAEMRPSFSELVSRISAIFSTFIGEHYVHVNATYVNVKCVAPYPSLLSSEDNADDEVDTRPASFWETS

Take `CNc1nc(Nc2ccc(C(=O)N3CCOCC3)cc2OC)nc2[nH]cc(C#N)c12` [Example 1, 2-((2-methoxy-4-(morpholine-4-carbonyl)phenyl)amino)-4-(methylamino)-7H-pyrrolo[2,3-d]pyrimidine-5-carbonitrile]: the remaining binding at 1 µM in assay [1] was 35%; in assay [2], 90%; in assay [3] it was 100%; in assay [4], 89%; in assay [5] it was 97%; in assay [6], 13%. Also, the remaining binding at 1 µM in assay [7] was found to be 100%.

For `CC1(Nc2nc(Nc3cnn([C@H]4CCN(C5COC5)C[C@@H]4F)c3Cl)nc3[nH]cc(C#N)c23)CC1` [Example 52, 2-((5-chloro-1-((3S,4S)-3-fluoro-1-(oxetane-3-yl)piperidine-4-yl)-1H-pyrazole-4-yl)amino)((1-methylcyclopropyl)amino)-7H-pyrrolo[2,3-d]pyrimidine-5-carbonitrile], the remaining binding at 1 µM worked out at 27% in assay [1]; 82% in assay [2]; 14% in assay [3]; 54% in assay [4]; 1% in assay [5]; 3% in assay [6]. The remaining binding at 1 µM in assay [7] was 28%.

Take `CCNc1nc(Nc2ccc(C(=O)N3CCC(N4CCOCC4)CC3)cc2OC)nc2[nH]cc(C(F)(F)F)c12` [Example 104, (4-((4-(ethylamino)-5-(trifluoromethyl)-7H-pyrrolo[2,3-d]pyrimidine-2-yl)amino)-3-methoxyphenyl)(4-morpholinopiperidine-1-yl)methanone]: the remaining binding at 1 µM in assay [1] came to 61%; in assay [2], 89%; in assay [3] it was 100%; in assay [4], 95%; in assay [5], 86%; in assay [6], 0.35%. The remaining binding at 1 µM in assay [7] was 100%.

For the origin of these results see patent US11208412B2 (DAEGU-GYEONGBUK MEDICAL INNOVATION FOUNDATION, priority 2017, dated 2021).
